The test system of assay [1] is AMPK phosphorylation through AdipoR1 in ORS cells. The assay can be described thus: Western blot p-AMPK in AdipoR1 siRNA-transfected ORS cells. Format: cell-based, human. The source says:
(§1) Following the confirmation of the molecular interaction between AdipoR1 and P5, we evaluated the activation of the intracellular signaling pathway by P5. We investigated whether APN treatment on ORS and DP cells could activate AMPK or ERK signaling pathways, which are previously known to be downstream effectors of AdipoR1 (Mao et al, [2006]; Deepa & Dong, [2009]; Shibata et al, [2012]). […] Next, for determination of whether both P5 and APN mediates the phosphorylation of AMPK through AdipoR1 in ORS and DP cells, the cells were transfected with AdipoR1 siRNA (Appendix Fig S1). […] Collectively, P5 activates AMPK signaling pathway through AdipoR1 in ORS and DP cells in vitro.
All transfections were performed using Lipofectamine 2000 following the manufacturer’s instructions (#11668019; Thermo Fisher). Human DP and ORS cells were cultured without antibiotics until reaching 50% confluency. AdipoR1 or scrambled siRNA (Bioneer) was used. The culture medium was changed 6 h after transfection, and the cells were incubated for another 24 h before subsequent analyses.
Human ORS and DP cells or skin tissue were lysed (RIPA lysis buffer; #20‐188; Merck Millipore). […] Antibody‐antigen complexes detected by enhanced chemiluminescent substrate (Thermo Fisher) were captured and quantified by Amersham imager 680 systems (GE Healthcare).
(In general: A western blot detects proteins with antibodies after separation by electrophoresis.)

For another assay, the system named is Adipor1−/− mice. The assay can be described thus: Mouse hair cycle modulation, hair cycle score, Adipor1−/− mice. The class given is in vivo. The conditions noted are these: n = 5 mice/group, 35 days. From the text: To test whether the effect of P5 is mediated through AdipoR1 in vivo, we used Adipor1 ^−/− mice (Yamauchi et al, [2007]; Okada‐Iwabu et al, [2013]). […] Consistently, the anagen induction effects of P5 was abolished in the Adipor1 ^−/− mice (Fig 4I and J), in contrast to in WT mouse (Appendix Fig S2). […] Taken together, topical P5 treatment can accelerate hair growth through AdipoR1 in vivo.
For the hair cycle modulation experiment, Adipoq ^−/− (stock #008195; JAX) (Ma et al, [2002]), Adipor1 ^−/− (Yamauchi et al, [2007]; Okada‐Iwabu et al, [2013]), or C57BL/6 (KOATECH) female mice was used (Müller‐Röver et al, [2001]). They were housed (up to four animals per cage; 23 ± 2°C, 8:00–20:00, 12 h/12 h light/dark cycle). Mice were fed a standard chow diet and provided food and water ad libitum. Mice were randomly allocated and shaved dorsally at 7.5 weeks of age. […] The mouse hair growth score (a value from 0 to 100 based on the skin pigmentation and hair shaft density) was monitored and documented at designated days with the experimenters being blind to the conditions, following a previous study (Chai et al, [2019]). […] On day 35, we obtained dorsal cutaneous tissue for histological analysis: anagen induction scores (calculated using an assigned arbitrary score; telogen = 1, anagen I–VI = 2–7) (Müller‐Röver et al, [2001]). […]

The test system of a further assay is HGF mRNA. The assay can be described thus: qRT-PCR growth factor gene expression in DP cells, HGF. Format: cell-based, human. The conditions noted are these: for mRNA_HGF: DP cells. The source says:
Next, we investigated the downstream effects of P5 on hair growth factor genes and proteins in DP cells. […] We tested whether P5 can also increase the mRNA levels and proteins of hair growth factors in DP cells: IGF‐1, VEGF, HGF, platelet‐derived growth factor alpha (PDGFA), and fibroblast growth factor (FGF) 7, which are known to induce or maintain the anagen phase of the hair cycle (Jindo et al, [1994]; Philpott et al, [1994]; Yano et al, [2001]; Jang, [2005]; Tomita et al, [2006]; Iino et al, [2007]).
Total RNA was isolated from P5‐treated DP cells using RNAiso Plus (#9109; TaKaRa). We used the total RNA (1 µg) for cDNA synthesis using a RevertAid First Strand cDNA Synthesis Kit (Thermo Fisher) according to the manufacturer's instructions. The mRNA expression levels were quantified on a 7500 Real‐time PCR System (Thermo Fisher) using TB Green Premix Ex Taq (TaKaRa Bio): human IGF‐1, VEGF, HGF, PDGFA, FGF7, and glyceraldehyde 3‐phosphate dehydrogenase (GAPDH) (Appendix Table S2). The relative expression levels of each gene were determined by the 2^‐ΔΔCT method.

The test system of assay [2] is AMPK phosphorylation in ORS cells. In words: Western blot p-AMPK, ORS cells. As to conditions: P5 0 - 50 μM, APN 2.5 μg/ml. The class given is cell-based, human.
From the text: as §1
Human ORS and DP cells or skin tissue were lysed (RIPA lysis buffer; #20‐188; Merck Millipore). The obtained protein was then separated by 8% SDS–PAGE and transferred to a polyvinylidene fluoride membrane (Amersham). The protein transferred membranes were incubated overnight with the specific antibodies. […] Antibody‐antigen complexes detected by enhanced chemiluminescent substrate (Thermo Fisher) were captured and quantified by Amersham imager 680 systems (GE Healthcare).

Here are results for 1 substance from PMC8495455, “Discovery of a transdermally deliverable pentapeptide for activating AdipoR1 to promote hair growth” (EMBO Molecular Medicine, 2021).

As for “GLYYF [P5, GST-fused (GST-P5) in pulldown assays]”, the “p-AMPK intensity after AdipoR1 siRNA transfection, ORS cells” value in assay [1] was “intensity was reduced”. The “Anagen induction effects / hair cycle scores vs vehicle” value in the assay on Adipor1−/− mice is listed as “abolished”. In addition, the mRNA_HGF with HGF mRNA (P5 5μM, relative to Control = 1, replicate 1) amounted to 3.441; with HGF mRNA (P5 5μM, relative to Control = 1, replicate 2) it was 1.115; in the assay on HGF mRNA (P5 5μM, relative to Control = 1, replicate 3), 3.233; with HGF mRNA (P5 5μM, relative to Control = 1, replicate 4), 5.51; with HGF mRNA (P5 5μM, relative to Control = 1, replicate 5), 1.947; in the assay on HGF mRNA (P5 5μM, relative to Control = 1, replicate 6) it was 1.893. Also, the mRNA_HGF in the assay on HGF mRNA (P5 25μM, relative to Control = 1, replicate 1) amounted to 6.428; in the assay on HGF mRNA (P5 25μM, relative to Control = 1, replicate 2) it was 1.581; with HGF mRNA (P5 25μM, relative to Control = 1, replicate 3), 2.359; in the assay on HGF mRNA (P5 25μM, relative to Control = 1, replicate 4), 5.518; in the assay with HGF mRNA (P5 25μM, relative to Control = 1, replicate 5), 2.408; in the assay on HGF mRNA (P5 25μM, relative to Control = 1, replicate 6), 2.218. The “HGF mRNA expression” value in the assay with HGF mRNA (P5-treated DP cells, n = 6) is listed as “significantly increased”. In assay [2], the “Phosphorylation of AMPK, ORS cells” value is on record as “concentration‐dependent phosphorylation of AMPK”.
